{
  "source": "paper PMC11123841",
  "about": "“Discovery and Synthesis of Hydroxy-L-Proline Blockers of the Neutral Amino Acid Transporters SLC1A4 (ASCT1) and SLC1A5 (ASCT2)” (Molecules, 2024)",
  "biological_target": "T1, SLC38A2 (ATA2) (Homo sapiens, UniProt Q96QD8)",
  "T1 construct": "expressed in transfected cells; host or cells: Xenopus laevis oocytes (cRNA injection)",
  "T1 sequence (Q96QD8 1-506)": "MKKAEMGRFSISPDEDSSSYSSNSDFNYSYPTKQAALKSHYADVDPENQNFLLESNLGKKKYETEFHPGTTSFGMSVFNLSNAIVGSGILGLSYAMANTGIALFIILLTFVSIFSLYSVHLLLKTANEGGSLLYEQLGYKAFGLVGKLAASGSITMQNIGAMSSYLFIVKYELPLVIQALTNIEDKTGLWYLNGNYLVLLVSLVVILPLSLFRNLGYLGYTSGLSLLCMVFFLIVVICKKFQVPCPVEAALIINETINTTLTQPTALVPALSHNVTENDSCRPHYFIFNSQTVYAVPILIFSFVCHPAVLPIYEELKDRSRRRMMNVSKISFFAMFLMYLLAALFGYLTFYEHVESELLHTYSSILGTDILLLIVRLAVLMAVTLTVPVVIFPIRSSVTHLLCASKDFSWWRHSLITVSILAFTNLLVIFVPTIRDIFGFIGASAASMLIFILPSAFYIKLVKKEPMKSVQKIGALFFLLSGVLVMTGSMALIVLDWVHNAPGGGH",
  "assay": "TEVC electrogenic coupled currents in oocytes",
  "assay_type": "cell-based",
  "conditions": "100 µM L-alanine, 3 µM BPOHP",
  "procedure": "Additionally, 4-HP applied at 1 mM was used to assess activity at the glutamate transporters SLC1A3 or SLC1A1.\nBPOHP activity was evaluated against the glutamate transporters paralogs within the SLC1A gene family (SLC1A 1–3) as well as at neutral amino acid transporters that share common ligand substrates with the SLC1 family including SLC38A1,2, and 4 (ATA1, ATA2, ATA3) and heteromeric transporters SLC7A10+SLC3A2 (asc-1/4f2).\nUptake was halted by washing 3 times with 4 °C ND96 buffer. Oocytes were then lysed in 0.1% Triton X-100, and radioactivity was counted via liquid scintillation. Dose response curves were generated by fitting fractional inhibition (I) to the expression I = Imax × [inhibitor]/([inhibitor] + IC50).\nTwo-electrode voltage clamp (TEVC) transporter currents were recorded with a GeneClamp 500 amplifier and Digidata 1320A analog–digital interface (Molecular Devices, San Jose, CA, USA). […] Data were acquired with Axograph (v1.7.6) and LabChart (v7) and analyzed with Kaleidagraph software (v4.1) (Synergy, Reading, PA, USA). Uncoupled anion currents associated with the transport of substrate and block of SLC1A4 or SLC1A5 mediated leak conductance were recorded in the presence of Ringer with 50% substitution of NaCl by NaSCN to amplify the non-transported anion conductance. […]",
  "note": "“Also recorded” adds a separate entry of the source.",
  "data": [
    {"smiles": "O=C(O)[C@H]1NC[C@@H](OCc2ccc(-c3ccccc3)cc2)[C@@H]1O", "note": "[14e]", "values": [
      {"measurement": "block of L-alanine current", "result": "no effect; also recorded: no discernible block; also recorded: no inhibition was detected"}
    ]}
  ]
}
